Experimental data as given in patent publication US10927107B2, “Phenyl [a]indole[2,3-g]quinolizine compounds, preparation method therefor, pharmaceutical composition, and applications thereof” (Shanghai Institute of Materia Medica, Chinese Academy of …, priority 2016, dated 2021).

These molecules were tested on HepG2 cells (assay: In vitro lipid-lowering activity: DiI-LDL uptake in HepG2 cells). Settings: Homo sapiens, test compound 5 uM, 24 h, DiI-LDL 20 ug/ml, 3 h, FLU of sample group/FLU of blank group x100%, read-out: LDL uptake rate.
Type: cell-based
Experimental: HepG2 cells were inoculated in 24-well plates, cultured in DMEM containing 10% FBS for 24 h or 48 h, and then transferred to DMEM containing 2% defatted serum and cultivated for 24 h. The old culture solution was discarded and replaced with new 2% defatted serum DMEM, and a test compound (the working concentration of which is 5 uM, triplicate for each sample) was added and incubated for 24 h. The old culture solution was abandoned and DMEM containing DiI-LDL (20 ug/ml) was added (300 ul/per 24 wells), incubated for 3 h. DMEM containing DiI-LDL was discarded, and cells were rinsed twice with PBS containing 0.4% BSA, and 3 times with PBS to remove excess DiI-LDL. Isopropanol was added (500 ul/per well of a 24-well plate), and was kept in darkness. After shaken for 20 minutes, 200 ul of supernatant was sucked to a black fluorescent plate, and fluorescence intensity (FLU) was detected at excitation light 520 nm and emission light 578 nm. The experimental results were calculated: LDL uptake rate=(FLU value of sample group to be tested/FLU value of blank group)×100%.

Structure (SMILES)	activity at 5 µM
COc1ccc2c(c1)c1c(n2CO)CN2CCc3cc(OCc4cccc(C)c4)c(OC)cc3C2C1 (stereo not shown) [Example A142, (2,12-Dimethoxy-3-((3-methylbenzyl)oxo)-5,6,14,14a-tetrahydroindolo[3′,2′:4,5]pyridine[2,1-a]isoquinoline-9(8H)-yl)methanol]	108%
COc1cc2c(cc1OCc1ccccc1F)CCN1Cc3[nH]c4ccccc4c3CC21 (stereo not shown) [Example C54, 3-((2-fluorobenzyl)oxo)-2-methoxy-5,6,8,9,14,14a-hexahydroindole[3′,2′:4,5]pyridine[2,1-a]isoquinoline]	110%
COc1ccc2[nH]c3c(c2c1)CC1c2cc(OC)c(OCc4cccc(F)c4)cc2CCN1C3 (stereo not shown) [Example C51, 3-((3-Fluorobenzyl)oxo)-2,12-dimethoxy-5,6,8,9,14,14a-hexahydroindole[3′,2′:4,5]pyridine[2,1-a]isoquinoline]	192%
COc1cccc(COc2cc3c(cc2OC)CCN2Cc4c(c5cc(OC)ccc5n4CO)CC32)c1 (stereo not shown) [Example A13, (3,12-Dimethoxy-2-((3-methoxybenzyl)oxo)-5,6,14,14a-tetrahydroindolo[3′,2′:4,5]pyridine[2,1-a]isoquinoline-9(8H)-yl)methanol]	107%
COc1ccc2c(c1)c1c(n2CO)CN2CCc3cc(OCc4ccc(C(F)(F)F)cc4)c(OC)cc3C2C1 (stereo not shown) [Example A57, (2,12-Dimethoxy-3-((4-(trifluoromethyl)benzyl)oxy)-5,6,14,14a-tetrahydroindolo[3′,2′:4,5]pyridine[2,1-a]isoquinoline-9(8H)-yl)methanol]	112%
COc1ccc2[nH]c3c(c2c1)CC1c2cc(OCc4ccc(C)cc4)c(OC)cc2CCN1C3c1ccc(F)cc1 (stereo not shown) [Example B15, 8-(4-Fluorophenyl)-3,12-dimethoxy-2-((4-methylbenzyl)oxo)-5,6,8,9,14,14a-hexahydroindolo[3′,2′:4,5]pyridine[2,1-a]isoquinoline]	111%
COc1cc2c(cc1OCc1ccc(C)cc1)CCN1Cc3c(c4ccccc4n3CO)CC21 (stereo not shown) [Example A70, (2-methoxy-3-((4-methylbenzyl)oxy)-5,6,14,14a-tetrahydroindolo[3′,2′:4,5]pyridine[2,1-a]isoquinoline-9(8H)-yl)methanol]	80.6%
COc1ccc2[nH]c3c(c2c1)C[C@@H]1c2cc(OCc4ccc(C(F)(F)F)cc4)c(OC)cc2CCN1C3 [(R)-C3]	218%
CCOc1ccccc1OCCN[C@H](C)Cc1ccc(OC)c(S(N)(=O)=O)c1 [Positive control, Tamsulosin, reference compound]	138%
COc1ccc2[nH]c3c(c2c1)C[C@@H]1c2cc(OC)c(OCc4ccc(C(F)(F)F)cc4)cc2CCN1C3 [(R)-C47, (R)-2,12-Dimethoxy-3-((4-(trifluoromethyl)benzyl)oxy)-5,6,8,9,14,14a-hexahydroindolo[3′,2′:4,5]pyrido[2,1-a]isoquinoline]	292%
COc1ccc2[nH]c3c(c2c1)CC1c2cc(OCc4ccccc4F)c(OC)cc2CCN1C3c1ccc(F)cc1 (stereo not shown) [Example B9, 2-((2-fluorobenzyl)oxo)-8-(4-fluorophenyl)-3,12-dimethoxy-5,6,8,9,14,14a-hexahydroindole[3′,2′:4,5]pyridine[2,1-a]isoquinoline]	94.3%
COc1ccc2c(c1)c1c(n2CO)CN2CCc3cc(OC)c(OCc4ccccc4)cc3[C@H]2C1 [(R)-A1]	185%
COc1cc2c(cc1OCc1ccc(F)cc1)C1Cc3c([nH]c4ccccc34)C(c3ccc(F)cc3)N1CC2 (stereo not shown) [Example B6, 2-((4-fluorobenzyl)oxo)-8-(4-fluorophenyl)-3-methoxy-5,6,8,9,14,14a-hexahydroindole[3′,2′: 4,5]pyridine[2,1-a]isoquinoline]	108%
COc1ccc2[nH]c3c(c2c1)CC1c2cc(OC)c(OCc4cccc(F)c4)cc2CCN1C3c1ccc(F)cc1 (stereo not shown) [Example B61, 3-((3-fluorobenzyl)oxo)-8-(4-fluorophenyl)-2,12-dimethoxy-5,6,8,9,14,14a-hexahydroindole[3′,2′:4,5]pyridine[2,1-a]isoquinoline]	116%
COc1cc2c(cc1OCc1cccc(C)c1)CCN1Cc3[nH]c4ccccc4c3CC21 (stereo not shown) [Example C107, 2-methoxy-3-((3-methylbenzyl)oxo)-5,6,8,9,14,14a-hexahydroindolo[3′,2′:4,5]pyridine[2,1-a]isoquinoline]	69.5%
COc1cc2c(cc1OCc1ccc(C)cc1)CCN1Cc3[nH]c4ccccc4c3CC21 (stereo not shown) [Example C60]	84.3%
COc1ccc2c(c1)c1c(n2CO)CN2CCc3cc(OC)c(OCC(F)(F)F)cc3C2C1 (stereo not shown) [Example A39, (3,12-Dimethoxy-2-(2,2,2-trifluoroethoxy)-5,6,14,14a-tetrahydroindolo[3′,2′:4,5]pyridine[2,1-a]isoquinoline-9(8H)-yl)methanol]	147%

Structure (SMILES)	activity at 5 µM
COc1cc2c(cc1OCc1ccccc1F)C1Cc3c(n(CO)c4ccccc34)CN1CC2 (stereo not shown) [Example A10, (2-((2-fluorobenzyl)oxy)-3-methoxy-5,6,14,14a-tetrahydroindolo[3′,2′:4,5]pyridine[2,1-a]isoquinoline-9(8H)-yl)methanol]	108%
COc1ccc2[nH]c3c(c2c1)C[C@H]1c2cc(OCc4ccc(C(F)(F)F)cc4)c(OC)cc2CCN1C3 [(S)-C3]	111%
COc1ccc2c(c1)c1c(n2CO)CN2CCc3cc(OCc4ccccc4)c(OC)cc3[C@@H]2C1 [(S)-A55]	120%
COc1ccc2[nH]c3c(c2c1)CC1c2cc(OC)c(OCc4cccc(C)c4)cc2CCN1C3 (stereo not shown) [Example C106, 2,12-dimethoxy-3-((3-methylbenzyl)oxo)-5,6,8,9,14,14a-hexahydroindolo[3′,2′:4,5]pyridine[2,1-a]isoquinoline]	111%
COc1ccc2[nH]c3c(c2c1)C[C@H]1c2cc(OC)c(OCc4ccc(C(F)(F)F)cc4)cc2CCN1C3 [(S)-C47, (S)-2,12-Dimethoxy-3-((4-(trifluoromethyl)benzyl)oxo)-5,6,8,9,14,14a-hexahydroindolo[3′,2′:4,5]pyrido[2,1-a]isoquinoline]	273%
OCn1c2c(c3ccccc31)CC1c3cc4c(cc3CCN1C2)OCO4 (stereo not shown) [Example A109, (5,6,14,14a-tetrahydro-[1,3]dioxazo[4,5-g]indolo[3′,2′:4,5]pyridine[2,1-a]isoquinoline-9(8H)-yl)methanol]	100%
COc1cc2c(cc1OCc1cccc(C)c1)CCN1Cc3c(c4ccccc4n3CO)CC21 (stereo not shown) [Example A143, (2-methoxy-3-((3-methylbenzyl)oxo)-5,6,14,14a-tetrahydroindolo[3′,2′:4,5]pyridine[2,1-a]isoquinoline-9(8H)-yl)methanol]	91.1%
COc1ccc2c(c1)c1c(n2CO)CN2CCc3cc(OCc4ccccc4)c(OC)cc3[C@H]2C1 [(R)-A55]	200%
COc1ccc2c(c1)c1c(n2CO)CN2CCc3cc(OC)c(OCc4ccccc4)cc3[C@@H]2C1 [(S)-A1]	116%
COc1ccc2c(c1)c1c(n2CO)CN2CCc3cc(OC)c(OC)cc3C2C1 (stereo not shown) [Example A37, (2,3,12-Trimethoxy-5,6,14,14a-tetrahydroindolo[3′,2′:4,5]pyridine[2,1-a]isoquinoline-9(8H)-yl)methanol]	99.1%
COc1cc2c(cc1OCc1ccc(F)cc1)CCN1C2Cc2c([nH]c3ccccc23)C1c1ccc(F)cc1 (stereo not shown) [Example B60, 3-((4-fluorobenzyl)oxo)-8-(4-fluorophenyl)-2-methoxy-5,6,8,9,14,14a-hexahydroindole[3′,2′: 4,5]pyridine[2,1-a]isoquinoline]	114%
COc1cc2c(cc1OCc1ccc(F)cc1)CCN1Cc3c(c4ccccc4n3CO)CC21 (stereo not shown) [Example A60]	108%
COc1ccc2[nH]c3c(c2c1)CC1c2cc(OC)c(OCc4ccc(F)cc4)cc2CCN1C3c1ccc(F)cc1 (stereo not shown) [Example B59, 3-((4-fluorobenzyl)oxo)-8-(4-fluorophenyl)-2,12-dimethoxy-5,6,8,9,14,14a-hexahydroindole[3′,2′:4,5]pyridine[2,1-a]isoquinoline]	109%
COc1cc2c(cc1OCc1ccc(C)cc1)C1Cc3c([nH]c4ccccc34)C(c3ccc(F)cc3)N1CC2 (stereo not shown) [Example B16, 8-(4-Fluorophenyl)-3-methoxy-2-((4-methylbenzyl)oxo)-5,6,8,9,14,14a-hexahydroindolo[3′,2′:4,5]pyridine[2,1-a]isoquinoline]	107%
COc1cc2c(cc1OCc1ccccc1F)C1Cc3c([nH]c4ccccc34)C(c3ccc(F)cc3)N1CC2 (stereo not shown) [Example B10, 2-((2-fluorobenzyl)oxo)-8-(4-fluorophenyl)-3-methoxy-5,6,8,9,14,14a-hexahydroindole[3′,2′: 4,5]pyridine[2,1-a]isoquinoline]	108%
COc1ccc2c(c1)c1c(n2CO)CN2CCc3cc(OC)c(OCc4ccccc4F)cc3C2C1 (stereo not shown) [Example A9, (2-((2-fluorobenzyl)oxy)-3,12-dimethoxy-5,6,14,14a-tetrahydroindolo[3′,2′:4,5]pyridine[2,1-a]isoquinoline-9(8H)-yl)methanol]	113%
COc1cccc(COc2cc3c(cc2OC)CCN2C3Cc3c([nH]c4ccc(OC)cc34)C2c2ccc(F)cc2)c1 (stereo not shown) [Example B13, 8-(4-Fluorophenyl)-3,12-dimethoxy-2-((3-methoxybenzyl)oxo)-5,6,8,9,14,14a-hexahydroindolo[3′,2′:4,5]pyridine[2,1-a]isoquinoline]	105%
